Bridge positions count the residues as written; N and C are the ends. Square brackets hold non-standard residues; d marks the D form. Peptide text beside a SMILES is read from it. * marks the point of attachment. ξ: configuration not given here. Phe(4-COOH) = N[C@@H](Cc1ccc(C(=O)O)cc1)C(=O)O; Phe(3,4-F2) = N[C@@H](Cc1ccc(F)c(F)c1)C(=O)O; Bip = N[C@@H](Cc1ccc(-c2ccccc2)cc1)C(=O)O; Phe(3-Me) = Cc1cccc(C[C@H](N)C(=O)O)c1; Val(3-OH) = CC(C)(O)[C@H](N)C(=O)O; hArg = N=C(N)NCCCC[C@H](N)C(=O)O; 4Pal = N[C@@H](Cc1ccncc1)C(=O)O; Cha = N[C@@H](CC1CCCCC1)C(=O)O; Cit = NC(=O)NCCC[C@H](N)C(=O)O; NMeN = CN[C@@H](CC(N)=O)C(=O)O; Thr(3ξ) = CC(O)[C@H](N)C(=O)O; Carboxymethyl = O=C(O)C*; Orn = NCCC[C@H](N)C(=O)O; Pra = C#CC[C@H](N)C(=O)O; Aun = NCCCCCCCCCCC(=O)O; Dab = NCC[C@H](N)C(=O)O; Nva = CCC[C@H](N)C(=O)O; Dap = NC[C@H](N)C(=O)O; AEEA = NCCOCCOCC(=O)O

T1 sequence (Q15116 25-288): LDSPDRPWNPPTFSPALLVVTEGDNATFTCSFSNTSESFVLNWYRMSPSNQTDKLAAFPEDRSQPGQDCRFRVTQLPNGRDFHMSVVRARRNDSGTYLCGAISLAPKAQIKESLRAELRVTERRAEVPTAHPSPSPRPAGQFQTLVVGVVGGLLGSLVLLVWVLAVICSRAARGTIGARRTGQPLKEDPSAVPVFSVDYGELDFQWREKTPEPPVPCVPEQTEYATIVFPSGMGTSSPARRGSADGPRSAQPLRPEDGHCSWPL

The assay addresses T1, PD-1/PD-L1 interaction (PE-labeled human PD-L1-Ig binding to Jurkat cell line over-expressing human PD-1) (Homo sapiens, UniProt Q15116).
T1 construct: expressed in transfected cells; host or cells: Jurkat
Put plainly: Jurkat-PD-1 Cell Binding High-Content Screening Assay (CBA). In kind it is cell-based. The conditions noted are these: Jurkat cell line over-expressing human PD-1; PE-labeled PD-L1-Ig 20 nM final; read-out: Jurkat hPD1-PDL1 IC50. The essentials:
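Jurkat-hPD-1 cells, DMEM/10% FCS; cpd 2 h 37° C; PE-PD-L1-Ig 20 nM final, 1 h; 4% PFA fix + Hoechst 33342, 3× dPBS wash; high-content imaging read-out.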
As to `Cc1cccc(C[C@@H]2NC(=O)[C@H](CC(=O)O)NC(=O)[C@H](Cc3ccc(OCC(=O)O)cc3)NC(=O)[C@H](CN)NC(=O)CSC[C@@H](C(=O)NCCOCCOCC(=O)N[C@@H](CCN)C(=O)NCCCCCCCCCCC(=O)O)NC(=O)[C@H](CCCN)NC(=O)[C@H](C(C)C)NC(=O)[C@H](CC3CCCCC3)NC(=O)[C@H](CCN)NC(=O)[C@@H](CC(C)C)NC(=O)[C@H](CCCN)NC(=O)[C@H](C(C)C)NC(=O)[C@H](Cc3ccc(-c4ccccc4)cc3)NC(=O)[C@H](C(C)C)NC2=O)c1` [Compound 2543] ({CH2CO}-[Dap]Y(Carboxymethyl)D[Phe(3-Me)]V[Bip]V[Orn][dL][Dab][Cha]V[Orn]C[AEEA][Dab][Aun]-OH; thioether N-14), the 50% inhibitory concentration (IC50) worked out at 9.5 nM.

`CC(C)C[C@H]1NC(=O)[C@H](CCCN)NC(=O)[C@H](Cc2ccc(O)cc2)NC(=O)[C@H](Cc2ccc(-c3ccccc3)cc2)NC(=O)[C@H](Cc2ccc(OCC(=O)O)cc2)NC(=O)[C@H](Cc2ccc(F)c(F)c2)NC(=O)[C@H](CC(=O)O)NC(=O)[C@H](Cc2ccc(OCC(=O)O)cc2)NC(=O)[C@H](CN)NC(=O)CSC[C@@H](C(=O)N[C@@H](CCN)C(=O)NCCOCCOCC(=O)NCCCCCCCCCCC(=O)O)NC(=O)[C@H](CCCN)NC(=O)[C@H](C(C)C)NC(=O)[C@H](CC2CCCCC2)NC(=O)[C@H](CCN)NC1=O` [Compound 1313] ({CH2CO}-[Dap]Y(Carboxymethyl)D[Phe(3,4-F2)]Y(Carboxymethyl)[Bip]Y[Orn][dL][Dab][Cha]V[Orn]C[Dab][AEEA][Aun]-OH; thioether N-14): the half-inhibitory concentration (IC50) worked out at 109 nM.

In the case of `CC(C)C[C@H]1NC(=O)[C@H](CCCN)NC(=O)[C@H](C(C)C)NC(=O)[C@H](Cc2ccc(-c3ccccc3)cc2)NC(=O)[C@H](C(C)C)NC(=O)[C@H](Cc2c[nH]c3ccccc23)NC(=O)[C@H](CC(=O)O)NC(=O)[C@H](Cc2ccc(OCC(=O)O)cc2)NC(=O)[C@H](CN)NC(=O)CSC[C@@H](C(=O)N[C@@H](CCCCN)C(=O)NCCCCCCCCCCC(=O)O)NC(=O)[C@H](CCCN)NC(=O)[C@H](C(C)C)NC(=O)[C@H](CC2CCCCC2)NC(=O)[C@H](Cc2c[nH]cn2)NC1=O` [Compound 2804] ({CH2CO}-[Dap]Y(Carboxymethyl)DWV[Bip]V[Orn][dL]H[Cha]V[Orn]CK[Aun]-OH; thioether N-14), the 50% inhibitory concentration (IC50) amounted to 51 nM.

With `CCC[C@@H]1NC(=O)CSC[C@@H](C(=O)N[C@@H](CCN)C(=O)NCCCCCCCCCCC(=O)O)NC(=O)[C@H](CO)NC(=O)[C@H](C(C)(C)O)NC(=O)[C@H](CC2CCCCC2)NC(=O)[C@H](CCN)NC(=O)[C@@H](CC(C)C)NC(=O)[C@H](CCCN)NC(=O)[C@H](Cc2ccc(OCC(=O)O)cc2)NC(=O)[C@H](Cc2ccc(-c3ccccc3)cc2)NC(=O)[C@H](Cc2ccc(OCC(=O)O)cc2)NC(=O)[C@H](Cc2cccc(C)c2)NC(=O)[C@H](CC(=O)O)NC(=O)[C@H](Cc2ccc(C(=O)O)cc2)NC1=O` [Compound 2178] ({CH2CO}-[Nva][Phe(4-COOH)]D[Phe(3-Me)]Y(Carboxymethyl)[Bip]Y(Carboxymethyl)[Orn][dL][Dab][Cha][Val(3-OH)]SC[Dab][Aun]-OH; thioether N-14), the half-inhibitory concentration (IC50) is 6.4 nM.

Take `CC(C)C[C@H]1NC(=O)[C@H](CCCN)NC(=O)[C@H](C(C)C)NC(=O)[C@H](Cc2ccc(-c3ccccc3)cc2)NC(=O)[C@H](C(C)C)NC(=O)[C@H](Cc2c[nH]c3ccccc23)NC(=O)[C@H](CC(=O)O)NC(=O)[C@H](Cc2ccc(OCC(=O)O)cc2)NC(=O)[C@H](CCCNC(=N)N)NC(=O)CSC[C@@H](C(=O)N(C)[C@@H](CC(N)=O)C(=O)NCCCCCCCCCCC(=O)O)NC(=O)[C@H](CO)NC(=O)[C@H](C(C)C)NC(=O)[C@H](CC2CCCCC2)NC(=O)[C@H](CCN)NC1=O` [Compound 3438] ({CH2CO}-RY(Carboxymethyl)DWV[Bip]V[Orn][dL][Dab][Cha]VSC[NMeN][Aun]-OH; thioether N-14): the IC50 is 66.1 nM.

Take `Cc1cccc(C[C@@H]2NC(=O)[C@H](CC(=O)O)NC(=O)[C@H](Cc3ccc(OCC(=O)O)cc3)NC(=O)[C@H](CCCNC(=N)N)NC(=O)CSC[C@@H](C(=O)N[C@@H](CCN)C(=O)NCCCCCCCCCCC(=O)O)NC(=O)[C@H](C(C)O)NC(=O)[C@H](C(C)C)NC(=O)[C@H](CC3CCCCC3)NC(=O)[C@H](CCN)NC(=O)[C@@H](CC(C)C)NC(=O)[C@H](CCCN)NC(=O)[C@H](CCCNC(N)=O)NC(=O)[C@H](Cc3ccc(-c4ccccc4)cc3)NC(=O)[C@H](C(C)C)NC2=O)c1` (stereo partly drawn) [Compound 3301] ({CH2CO}-RY(Carboxymethyl)D[Phe(3-Me)]V[Bip][Cit][Orn][dL][Dab][Cha]V[Thr(3ξ)]C[Dab][Aun]-OH; thioether N-14): the IC50 came to 17.4 nM.

For `Cc1cccc(C[C@@H]2NC(=O)[C@H](CC(=O)O)NC(=O)[C@H](Cc3ccc(OCC(=O)O)cc3)NC(=O)[C@H](Cc3ccc(OCC(=O)O)cc3)NC(=O)CSC[C@@H](C(=O)N[C@@H](CCN)C(=O)NCCCCCCCCCCC(=O)O)NC(=O)[C@H](CO)NC(=O)[C@H](C(C)C)NC(=O)[C@H](CC3CCCCC3)NC(=O)[C@H](CCN)NC(=O)[C@@H](CC(C)C)NC(=O)[C@H](CCCN)NC(=O)[C@H](C(C)C)NC(=O)[C@H](Cc3ccc(-c4ccccc4)cc3)NC(=O)[C@H](CC(C)C)NC2=O)c1` [Compound 1060] ({CH2CO}-Y(Carboxymethyl)Y(Carboxymethyl)D[Phe(3-Me)]L[Bip]V[Orn][dL][Dab][Cha]VSC[Dab][Aun]-OH; thioether N-14), the half-inhibitory concentration (IC50) came out at 89.8 nM.

As to `CC(C)C[C@H]1NC(=O)[C@H](CCCN)NC(=O)[C@H](C(C)C)NC(=O)[C@H](Cc2ccc(-c3ccccc3)cc2)NC(=O)[C@H](C(C)C)NC(=O)[C@H](Cc2c[nH]c3ccccc23)NC(=O)[C@H](CC(=O)O)NC(=O)[C@H](Cc2c[nH]cn2)NC(=O)[C@H](CCCNC(=N)N)NC(=O)CSC[C@@H](C(=O)N[C@@H](CCN)C(=O)NCCCCCCCCCCC(=O)O)NC(=O)[C@H](CO)NC(=O)[C@H](C(C)C)NC(=O)[C@H](CC2CCCCC2)NC(=O)[C@H](CCN)NC1=O` [Compound 3272] ({CH2CO}-RHDWV[Bip]V[Orn][dL][Dab][Cha]VSC[Dab][Aun]-OH; thioether N-14), the half-maximal inhibitory concentration (IC50) came to 29.8 nM.

As for `CC(=O)NCCCC[C@@H]1NC(=O)[C@H](C(C)C)NC(=O)[C@H](CC2CCCCC2)NC(=O)[C@H](CCN)NC(=O)[C@@H](CC(C)C)NC(=O)[C@H](CCCN)NC(=O)[C@H](Cc2ccc(O)cc2)NC(=O)[C@H](Cc2ccc(-c3ccccc3)cc2)NC(=O)[C@H](C(C)C)NC(=O)[C@H](Cc2c[nH]c3ccccc23)NC(=O)[C@H](CC(=O)O)NC(=O)[C@H](Cc2ccc(OCC(=O)O)cc2)NC(=O)[C@H](CCCCNC(=N)N)NC(=O)CSC[C@@H](C(=O)N[C@@H](CCN)C(=O)NCCCCCCCCCCC(=O)O)NC1=O` [Compound 3409] ({CH2CO}-[hArg]Y(Carboxymethyl)DWV[Bip]Y[Orn][dL][Dab][Cha]VK(Ac)C[Dab][Aun]-OH; thioether N-14), the IC50 was 15.6 nM.

Take `C#CC[C@H](NC(=O)COCCOCCNC(=O)[C@@H]1CSCC(=O)N[C@@H](Cc2ccncc2)C(=O)N[C@@H](Cc2ccc(OCC(=O)O)cc2)C(=O)N[C@@H](CC(=O)O)C(=O)N[C@@H](Cc2c[nH]c3ccccc23)C(=O)N[C@@H](C(C)C)C(=O)N[C@@H](Cc2ccc(-c3ccccc3)cc2)C(=O)N[C@@H]([C@@H](C)CC)C(=O)N[C@@H](CCCN)C(=O)N[C@H](CC(C)C)C(=O)N[C@@H](CCN)C(=O)N[C@@H](CC(C)C)C(=O)N[C@@H](C(C)C)C(=O)N[C@@H]([C@@H](C)O)C(=O)N1)C(=O)N[C@@H](CCN)C(=O)NCCCCCCCCCCC(=O)O` [Compound 1212] ({CH2CO}-[4Pal]Y(Carboxymethyl)DWV[Bip]I[Orn][dL][Dab]LVTC[AEEA][Pra][Dab][Aun]-OH; thioether N-14): the 50% inhibitory concentration (IC50) stood at 33.2 nM.

Regarding `CC(C)C[C@H]1NC(=O)[C@H](CCCN)NC(=O)[C@H](C(C)C)NC(=O)[C@H](Cc2ccc(-c3ccccc3)cc2)NC(=O)[C@H](C(C)C)NC(=O)[C@H](Cc2c[nH]c3ccccc23)NC(=O)[C@H](CC(=O)O)NC(=O)[C@H](Cc2ccc(OCC(=O)O)cc2)NC(=O)[C@H](CCCCNC(=N)N)NC(=O)CSC[C@@H](C(=O)NCC(=O)NCCOCCOCC(=O)N[C@@H](CCCN)C(=O)NCCCCCCCCCCC(=O)O)NC(=O)[C@H](CCCCN)NC(=O)[C@H](C(C)C)NC(=O)[C@H](CC2CCCCC2)NC(=O)[C@H](CCN)NC1=O` [Compound 3199] ({CH2CO}-[hArg]Y(Carboxymethyl)DWV[Bip]V[Orn][dL][Dab][Cha]VKCG[AEEA][Orn][Aun]-OH; thioether N-14), the IC50 came to 5.5 nM.

With `CC(C)C[C@H]1NC(=O)[C@H](CCCN)NC(=O)[C@H](C(C)C)NC(=O)[C@H](Cc2ccc(-c3ccccc3)cc2)NC(=O)[C@H](C(C)C)NC(=O)[C@H](Cc2c[nH]c3ccccc23)NC(=O)[C@H](CC(=O)O)NC(=O)[C@H](Cc2ccc(OCC(=O)O)cc2)NC(=O)[C@H](CN)NC(=O)CSC[C@@H](C(=O)N[C@@H](CCN)C(=O)NCCCCCCCCCCC(=O)O)NC(=O)[C@H](CCCN)NC(=O)[C@H](C(C)O)NC(=O)[C@H](CC2CCCCC2)NC(=O)[C@H](CCN)NC1=O` (stereo partly drawn) [Compound 3677] ({CH2CO}-[Dap]Y(Carboxymethyl)DWV[Bip]V[Orn][dL][Dab][Cha][Thr(3ξ)][Orn]C[Dab][Aun]-OH; thioether N-14), the IC50 stood at 11.3 nM.

For `CC(C)C[C@@H]1NC(=O)[C@H](Cc2c[nH]c3ccccc23)NC(=O)[C@H](CC(=O)O)NC(=O)[C@H](Cc2ccc(OCC(=O)O)cc2)NC(=O)[C@H](CN)NC(=O)CSC[C@@H](C(=O)N[C@@H](CCN)C(=O)NCCCCCCCCCCC(=O)O)NC(=O)[C@H](CO)NC(=O)[C@H](C(C)O)NC(=O)[C@H](CC2CCCCC2)NC(=O)[C@H](CCN)NC(=O)[C@@H](CC(C)C)NC(=O)[C@H](CCCN)NC(=O)[C@H](C(C)C)NC(=O)[C@H](Cc2ccc(-c3ccccc3)cc2)NC1=O` (stereo partly drawn) [Compound 3685] ({CH2CO}-[Dap]Y(Carboxymethyl)DWL[Bip]V[Orn][dL][Dab][Cha][Thr(3ξ)]SC[Dab][Aun]-OH; thioether N-14), the half-inhibitory concentration (IC50) is 30.2 nM.

What is called IC50 is the concentration needed to halve the response being measured.

Source of the values: US20260022142A1, “MACROCYCLIC IMMUNOMODULATORS” (Bristol-Myers Squibb Company, priority 2022, published 2026).
